# Data as given in patent US8163740B2, “6-substituted benzoxazines” (Hoffmann-La Roche Inc., priority 2008, dated 2012).
# Biological target: recombinant human 5-HT5A receptor (Homo sapiens, UniProt P47898)
# Experiment: [3H]LSD radioligand binding assay
# Conditions: [3H]LSD (approximately 1 nM); membranes from HEK-EBNA cells transiently expressing 5-HT5A; Ki by Cheng-Prussoff equation; read-out: Ki
# Procedure: A [^3H]LSD radioligand binding assay was used to determine the affinity of the compounds for the recombinant human 5-HT5A receptor, in membranes from transiently (cDNA) expressed 5-HT5A receptors in Human Embryonic Kidney-EBNA (HEK-EBNA) cells. Assay buffer consisted of Tris (50 mM) buffer containing 1 mM EGTA, 10 mM MgCl2 (pH 7.4) and 10 μM pargyline. The binding assay was carried out in 96-well-plates in the presence of [^3H]LSD (approximately 1 nM), approximately 2 μg/well of membrane protein, and 0.5 mg of Ysi-poly-1-lysine SPA beads in a final volume of 200 μl of buffer. Non-specific binding was defined using methiothepin 2 μM. Compounds were tested at 10 concentrations. All assays were conducted in duplicate and repeated at least two times. Assay plates were incubated for 120 min at room temperature before centrifugation. Bound ligand was determined using a Packard Topcount scintillation counter. IC50 values were calculated using a non-linear curve fitting program and Ki values calculated using the Cheng-Prussoff equation.
# recombinant human 5-HT5A receptor, sequence (P47898 whole entry): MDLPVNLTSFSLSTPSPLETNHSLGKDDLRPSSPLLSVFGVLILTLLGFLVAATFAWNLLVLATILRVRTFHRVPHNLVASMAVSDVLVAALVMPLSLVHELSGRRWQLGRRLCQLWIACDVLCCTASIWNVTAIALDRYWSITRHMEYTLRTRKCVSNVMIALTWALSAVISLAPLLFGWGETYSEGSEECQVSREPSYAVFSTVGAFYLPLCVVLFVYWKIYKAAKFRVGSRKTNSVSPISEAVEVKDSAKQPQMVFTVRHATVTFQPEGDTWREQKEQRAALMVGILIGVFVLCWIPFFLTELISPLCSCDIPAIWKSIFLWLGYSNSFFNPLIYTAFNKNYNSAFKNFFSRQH
row,Ki [nM],Compound
1,7.82,"COc1cccc2c1C(NC1=Nc3ccc(Nc4cccc(C(F)(F)F)n4)cc3CO1)CO2 (racemic) [Example 59, rac-N^2-(4-Methoxy-2,3-dihydro-benzofuran-3-yl)-N^6-(6-trifluoromethyl-pyridin-2-yl)-4H-benzo[d][1,3]oxazine-2,6-diamine]"
2,12.5,"COc1cccc2c1C(NC1=Nc3ccc(Nc4nccc(C(F)(F)F)n4)cc3CO1)CO2 (racemic) [Example 60, rac-N^2-(4-Methoxy-2,3-dihydro-benzofuran-3-yl)-N^6-(4-trifluoromethyl-pyrimidin-2-yl)-4H-benzo[d][1,3]oxazine-2,6-diamine]"
3,2.6,"COc1cccc2c1C(NC1=Nc3ccc(NS(=O)(=O)N(C)C)cc3CO1)CC2 (racemic) [Example 61, rac-N,N-(Dimethyl)-N′-{2-(7-Methoxy-indan-1-ylamino)-4H-benzo[d][1,3]oxazin-6-yl}-sulfamide]"
4,3.26,"COc1cccc2c1C(NC1=Nc3ccc(NS(=O)(=O)N4CCCCC4)cc3CO1)CC2 (racemic) [Example 62, rac-Piperidine-1-sulfonic acid [2-(7-methoxy-indan-1-ylamino)-4H-benzo[d][1,3]oxazin-6-yl]-amide]"
5,3.32,"COc1cccc2c1C(NC1=Nc3ccc(NS(=O)(=O)N4CCOCC4)cc3CO1)CC2 (racemic) [Example 63, rac-Morpholine-4-sulfonic acid [2-(7-methoxy-indan-1-ylamino)-4H-benzo[d][1,3]oxazin-6-yl]-amide]"
6,4.08,"CN(C)S(=O)(=O)Nc1ccc2c(c1)COC(NC1CCc3cc(F)ccc31)=N2 (racemic) [Example 64, rac-N,N-(Dimethyl)-N′-{2-(5-Fluoro-indan-1-ylamino)-4H-benzo[d][1,3]oxazin-6-yl}-sulfamide]"
7,16.3,"Nc1ccc2c(c1)COC(NC1CCOc3ccccc31)=N2 (racemic) [Example 75, rac-N^2-Chroman-4-yl-4H-benzo[d][1,3]oxazine-2,6-diamine]"
8,4.26,"COc1cccc2c1C(NC1=Nc3ccc(Nc4cccc(C(F)(F)F)n4)cc3CO1)CC2 (racemic) [Example 80, rac-N^2-(7-Methoxy-indan-1-yl)-N^6-(6-trifluoromethyl-pyridin-2-yl)-4H-benzo[d][1,3]oxazine-2,6-diamine]"
9,7.16,"COc1cccc2c1C(NC1=Nc3ccc(Nc4nccc(C(F)(F)F)n4)cc3CO1)CC2 (racemic) [Example 81, rac-N^2-(7-Methoxy-indan-1-yl)-N^6-(4-trifluoromethyl-pyrimidin-2-yl)-4H-benzo[d][1,3]oxazine-2,6-diamine]"
10,1.43,"COc1cccc2c1C(NC1=Nc3ccc(NC(=O)CN4CCN(C)CC4)cc3CO1)CC2 (racemic) [Example 86, rac-N-[2-(7-Methoxy-indan-1-ylamino)-4H-benzo[d][1,3]oxazin-6-yl]-2-(4-methyl-piperazin-1-yl)-acetamide]"
11,8.28,"O=C(Nc1ccc2c(c1)COC(NC1CCOc3ccccc31)=N2)C1CC1 (racemic) [Example 90, rac-Cyclopropanecarboxylic acid [2-(chroman-4-ylamino)-4H-benzo[d][1,3]oxazin-6-yl]-amide]"
12,52.5,"CN(C)S(=O)(=O)Nc1ccc2c(c1)COC(NC1CCOc3ccccc31)=N2 (racemic) [Example 91, rac-N,N-(Dimethyl)-N′-{2-(chroman-4-ylamino)-4H-benzo[d][1,3]oxazin-6-yl}-sulfamide]"
13,8.36,"COc1cccc2c1C(NC1=Nc3ccc(NS(C)(=O)=O)cc3CO1)CC2 (racemic) [Example 102, rac-N-[2-(7-Methoxy-indan-1-ylamino)-4H-benzo[d][1,3]oxazin-6-yl]-methanesulfonamide]"
14,2.82,"COc1cccc2c1C(NC1=Nc3ccc(NS(=O)(=O)C4CC4)cc3CO1)CC2 (racemic) [Example 103, rac-Cyclopropanesulfonic acid [2-(7-methoxy-indan-1-ylamino)-4H-benzo[d][1,3]oxazin-6-yl]-amide]"
